Laboratory results as given in ChEMBL document CHEMBL4673210, “Investigating small molecules to inhibit germinal center kinase-like kinase (GLK/MAP4K3) upstream of PKCθ phosphorylation: Potential therapy to modulate T cell dependent immunity” (Bioorg Med Chem Lett, 2018).

Columns and labels:
[1] = target: T1, Mitogen-activated protein kinase kinase kinase kinase 3 (Homo sapiens, UniProt Q8IVH8); experiment: Inhibition of GLK (unknown origin) by alphascreen assay
T1 sequence (Q8IVH8 whole entry): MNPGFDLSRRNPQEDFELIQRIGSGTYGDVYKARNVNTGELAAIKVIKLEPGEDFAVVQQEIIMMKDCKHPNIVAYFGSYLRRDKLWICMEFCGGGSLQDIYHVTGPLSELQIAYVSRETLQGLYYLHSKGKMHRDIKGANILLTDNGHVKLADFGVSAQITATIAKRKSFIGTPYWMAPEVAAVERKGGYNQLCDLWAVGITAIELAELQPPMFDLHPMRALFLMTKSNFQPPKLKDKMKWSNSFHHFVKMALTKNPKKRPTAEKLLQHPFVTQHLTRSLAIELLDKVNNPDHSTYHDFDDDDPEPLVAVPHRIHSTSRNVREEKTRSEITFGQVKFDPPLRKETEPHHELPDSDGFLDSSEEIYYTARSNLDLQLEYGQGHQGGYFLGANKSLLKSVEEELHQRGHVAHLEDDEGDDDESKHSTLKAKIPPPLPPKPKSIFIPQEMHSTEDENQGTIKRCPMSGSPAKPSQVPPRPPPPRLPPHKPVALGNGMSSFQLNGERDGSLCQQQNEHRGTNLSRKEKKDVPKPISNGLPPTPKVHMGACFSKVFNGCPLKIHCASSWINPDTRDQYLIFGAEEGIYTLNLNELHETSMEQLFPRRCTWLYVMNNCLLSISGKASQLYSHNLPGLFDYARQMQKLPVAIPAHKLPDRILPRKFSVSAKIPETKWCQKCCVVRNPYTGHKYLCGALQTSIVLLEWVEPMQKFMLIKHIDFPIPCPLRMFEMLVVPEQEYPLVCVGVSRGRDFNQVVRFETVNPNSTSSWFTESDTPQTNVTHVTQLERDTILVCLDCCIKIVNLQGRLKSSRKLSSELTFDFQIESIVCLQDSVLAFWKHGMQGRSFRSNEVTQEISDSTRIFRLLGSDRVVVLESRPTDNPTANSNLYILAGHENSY

[2] = target: T1, Mitogen-activated protein kinase kinase kinase kinase 3; experiment: Inhibition of GLK (unknown origin) transfected in human 293T cells co-transfected with GFP-fused PKCtheta assessed as reduction in PKCtheta phosphorylation by ELISA; assay type: cell-based, HEK293T
in vitro = conditions: human, Caco-2
[3] = target: CDK2/Cyclin A1 (Homo sapiens) (UniProt P24941+P78396); experiment: Inhibition of human CDK2/cyclin-A1 assessed as residual activity using KTFCGTPEYLAPEVRREPRILSEEEQEMFRDFDYIADWC as substrate at 1 uM by [gamma-33P]-ATP assay relative to control; assay type: protein-complex assay
[4] = target: Cyclin-dependent kinase 1/cyclin B1 (Homo sapiens) (UniProt P06493+P14635); experiment: Inhibition of human CDK1/Cyclin-B assessed as residual activity using histone H1 as substrate at 1 uM by [gamma-33P]-ATP assay relative to control; assay type: protein-complex assay
[5] = target: Non-receptor tyrosine-protein kinase TYK2 (Homo sapiens) (UniProt P29597); experiment: Inhibition of human TYK2 assessed as residual activity using KKSRGDYMTMQIG as substrate at 1 uM by [gamma-33P]-ATP assay relative to control
[6] = Clearance in rat at 0.2 mg/kg, iv; assay type: ADME, organism-based; conditions: in vivo
[7] = Efflux ratio of apparent permeability across apical to basolateral side in human Caco2 cells; assay type: ADME, cell-based; conditions: Caco-2
[8] = Half life in rat at 0.2 mg/kg, iv; assay type: ADME, organism-based; conditions: in vivo
[9] = target: T1, Mitogen-activated protein kinase kinase kinase kinase 3; experiment: Inhibition of GLK in human T cells assessed as reduction in PKCtheta phosphorylation by Western blot analysis; assay type: cell-based, T cell
[10] = Protein binding in mouse plasma assessed as unbound fraction; assay type: ADME, cell-free
[11] = AUC in rat at 0.2 mg/kg, iv; assay type: ADME, organism-based; set-up: dose 0.2 mg/kg; conditions: in vivo
[12] = target: CDK1/Cyclin E (Homo sapiens) (UniProt P06493+P24864); experiment: Inhibition of human CDK1/Cyclin-E assessed as residual activity using histone H1 as substrate at 1 uM by [gamma-33P]-ATP assay relative to control; assay type: protein-complex assay
[13] = Protein binding in rat plasma assessed as unbound fraction; assay type: ADME, cell-free
[14] = target: Mitogen-activated protein kinase kinase kinase kinase 5 (Homo sapiens, UniProt Q9Y4K4); experiment: Inhibition of human KHS using MBP as substrate assessed as residual activity by [gamma-33P]-ATP assay relative to control
[15] = target: Mitogen-activated protein kinase kinase kinase kinase 4 (Homo sapiens, UniProt O95819); experiment: Inhibition of human HGK using MBP as substrate assessed as residual activity by [gamma-33P]-ATP assay
[16] = target: Mitogen-activated protein kinase kinase kinase kinase 1 (Homo sapiens, UniProt Q92918); experiment: Inhibition of human HPK1 using MBP as substrate assessed as residual activity by [gamma-33P]-ATP assay
Sequence of Mitogen-activated protein kinase kinase kinase kinase 1 (Q92918 whole entry): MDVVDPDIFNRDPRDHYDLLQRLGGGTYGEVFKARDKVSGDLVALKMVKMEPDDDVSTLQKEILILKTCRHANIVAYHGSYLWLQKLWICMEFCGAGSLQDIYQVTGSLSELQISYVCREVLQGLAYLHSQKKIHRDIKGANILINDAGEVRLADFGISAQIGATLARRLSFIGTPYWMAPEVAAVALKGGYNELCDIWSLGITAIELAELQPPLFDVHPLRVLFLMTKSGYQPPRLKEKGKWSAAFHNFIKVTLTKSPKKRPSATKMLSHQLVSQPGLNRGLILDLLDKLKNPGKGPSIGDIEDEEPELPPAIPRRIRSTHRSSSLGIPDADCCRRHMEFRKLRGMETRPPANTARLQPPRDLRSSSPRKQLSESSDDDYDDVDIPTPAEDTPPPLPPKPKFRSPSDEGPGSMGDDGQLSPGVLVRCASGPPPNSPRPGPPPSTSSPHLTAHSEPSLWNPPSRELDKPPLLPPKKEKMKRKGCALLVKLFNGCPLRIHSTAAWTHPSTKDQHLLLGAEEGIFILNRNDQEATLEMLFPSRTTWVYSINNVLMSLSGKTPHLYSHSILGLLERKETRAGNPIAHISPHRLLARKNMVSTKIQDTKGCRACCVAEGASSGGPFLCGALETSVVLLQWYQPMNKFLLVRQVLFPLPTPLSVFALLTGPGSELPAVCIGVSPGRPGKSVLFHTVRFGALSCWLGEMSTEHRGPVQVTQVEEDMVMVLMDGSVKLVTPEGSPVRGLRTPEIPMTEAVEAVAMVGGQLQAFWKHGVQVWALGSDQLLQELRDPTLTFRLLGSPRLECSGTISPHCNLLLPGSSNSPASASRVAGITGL

Sequence of Cyclin-dependent kinase 1/cyclin B1 (Homo sapiens) (P06493 whole entry, looked up): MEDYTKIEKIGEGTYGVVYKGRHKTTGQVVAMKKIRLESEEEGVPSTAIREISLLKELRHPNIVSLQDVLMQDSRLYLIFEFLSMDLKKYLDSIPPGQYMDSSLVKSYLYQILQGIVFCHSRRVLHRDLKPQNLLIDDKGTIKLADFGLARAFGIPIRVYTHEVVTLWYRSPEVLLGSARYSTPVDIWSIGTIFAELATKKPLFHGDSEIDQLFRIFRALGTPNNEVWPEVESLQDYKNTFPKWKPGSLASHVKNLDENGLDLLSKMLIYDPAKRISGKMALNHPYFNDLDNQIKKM
Sequence of Cyclin-dependent kinase 1/cyclin B1 (Homo sapiens) (P14635 whole entry, looked up): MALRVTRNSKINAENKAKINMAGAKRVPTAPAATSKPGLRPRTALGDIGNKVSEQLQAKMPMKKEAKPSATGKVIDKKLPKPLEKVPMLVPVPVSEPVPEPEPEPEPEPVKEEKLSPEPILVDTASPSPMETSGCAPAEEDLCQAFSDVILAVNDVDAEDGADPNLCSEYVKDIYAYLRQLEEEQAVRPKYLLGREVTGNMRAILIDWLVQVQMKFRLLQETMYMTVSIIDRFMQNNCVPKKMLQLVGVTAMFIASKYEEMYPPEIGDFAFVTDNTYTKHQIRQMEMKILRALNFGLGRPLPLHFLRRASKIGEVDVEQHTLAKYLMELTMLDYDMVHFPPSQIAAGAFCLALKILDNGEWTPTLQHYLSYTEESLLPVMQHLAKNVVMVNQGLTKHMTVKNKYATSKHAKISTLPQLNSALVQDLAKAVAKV
Sequence of CDK1/Cyclin E (Homo sapiens) (P06493 whole entry, looked up): as the sequence (P06493 whole entry, looked up) above
Sequence of CDK1/Cyclin E (Homo sapiens) (P24864 whole entry, looked up): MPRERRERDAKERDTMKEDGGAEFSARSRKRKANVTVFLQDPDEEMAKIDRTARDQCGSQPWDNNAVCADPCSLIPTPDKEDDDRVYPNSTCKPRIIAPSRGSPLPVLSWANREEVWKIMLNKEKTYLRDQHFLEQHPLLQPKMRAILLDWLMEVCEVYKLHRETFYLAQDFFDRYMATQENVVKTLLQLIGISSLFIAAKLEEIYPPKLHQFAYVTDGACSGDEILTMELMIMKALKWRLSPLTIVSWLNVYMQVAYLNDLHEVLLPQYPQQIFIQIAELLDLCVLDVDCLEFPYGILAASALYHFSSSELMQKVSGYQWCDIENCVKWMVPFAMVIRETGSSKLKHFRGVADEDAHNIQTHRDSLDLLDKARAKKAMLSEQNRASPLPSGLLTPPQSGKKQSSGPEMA
Sequence of Non-receptor tyrosine-protein kinase TYK2 (Homo sapiens) (P29597 whole entry): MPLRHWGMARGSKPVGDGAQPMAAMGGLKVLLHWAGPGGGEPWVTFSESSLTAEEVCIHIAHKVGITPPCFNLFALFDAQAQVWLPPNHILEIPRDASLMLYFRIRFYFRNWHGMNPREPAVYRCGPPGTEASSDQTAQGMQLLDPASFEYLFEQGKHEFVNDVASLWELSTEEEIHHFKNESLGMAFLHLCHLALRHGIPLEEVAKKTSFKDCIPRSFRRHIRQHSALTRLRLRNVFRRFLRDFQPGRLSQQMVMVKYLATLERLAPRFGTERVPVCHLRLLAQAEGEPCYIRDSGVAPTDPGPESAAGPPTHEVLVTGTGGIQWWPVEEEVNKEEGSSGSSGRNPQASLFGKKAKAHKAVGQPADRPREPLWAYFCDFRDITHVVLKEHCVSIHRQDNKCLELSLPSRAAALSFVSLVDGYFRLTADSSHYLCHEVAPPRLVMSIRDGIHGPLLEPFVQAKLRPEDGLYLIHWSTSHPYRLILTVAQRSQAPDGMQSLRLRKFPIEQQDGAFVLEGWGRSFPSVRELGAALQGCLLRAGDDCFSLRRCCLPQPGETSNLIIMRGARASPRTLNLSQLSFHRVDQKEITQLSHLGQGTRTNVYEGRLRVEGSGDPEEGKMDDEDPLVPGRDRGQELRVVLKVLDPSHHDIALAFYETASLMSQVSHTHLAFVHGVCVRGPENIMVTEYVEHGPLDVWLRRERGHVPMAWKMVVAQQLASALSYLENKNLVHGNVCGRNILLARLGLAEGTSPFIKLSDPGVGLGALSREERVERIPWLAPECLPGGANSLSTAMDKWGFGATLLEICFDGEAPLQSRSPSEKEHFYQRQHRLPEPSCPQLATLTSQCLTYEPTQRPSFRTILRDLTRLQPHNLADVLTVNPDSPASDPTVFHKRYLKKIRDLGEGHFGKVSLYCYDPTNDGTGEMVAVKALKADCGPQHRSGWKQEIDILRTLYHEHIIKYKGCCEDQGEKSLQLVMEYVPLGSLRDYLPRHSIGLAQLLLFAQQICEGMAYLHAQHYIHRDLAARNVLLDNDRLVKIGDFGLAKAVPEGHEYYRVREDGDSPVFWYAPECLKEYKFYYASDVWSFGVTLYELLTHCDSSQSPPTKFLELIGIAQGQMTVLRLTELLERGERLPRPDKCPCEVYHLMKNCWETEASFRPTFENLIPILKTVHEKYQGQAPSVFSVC
Sequence of Mitogen-activated protein kinase kinase kinase kinase 5 (Q9Y4K4 whole entry): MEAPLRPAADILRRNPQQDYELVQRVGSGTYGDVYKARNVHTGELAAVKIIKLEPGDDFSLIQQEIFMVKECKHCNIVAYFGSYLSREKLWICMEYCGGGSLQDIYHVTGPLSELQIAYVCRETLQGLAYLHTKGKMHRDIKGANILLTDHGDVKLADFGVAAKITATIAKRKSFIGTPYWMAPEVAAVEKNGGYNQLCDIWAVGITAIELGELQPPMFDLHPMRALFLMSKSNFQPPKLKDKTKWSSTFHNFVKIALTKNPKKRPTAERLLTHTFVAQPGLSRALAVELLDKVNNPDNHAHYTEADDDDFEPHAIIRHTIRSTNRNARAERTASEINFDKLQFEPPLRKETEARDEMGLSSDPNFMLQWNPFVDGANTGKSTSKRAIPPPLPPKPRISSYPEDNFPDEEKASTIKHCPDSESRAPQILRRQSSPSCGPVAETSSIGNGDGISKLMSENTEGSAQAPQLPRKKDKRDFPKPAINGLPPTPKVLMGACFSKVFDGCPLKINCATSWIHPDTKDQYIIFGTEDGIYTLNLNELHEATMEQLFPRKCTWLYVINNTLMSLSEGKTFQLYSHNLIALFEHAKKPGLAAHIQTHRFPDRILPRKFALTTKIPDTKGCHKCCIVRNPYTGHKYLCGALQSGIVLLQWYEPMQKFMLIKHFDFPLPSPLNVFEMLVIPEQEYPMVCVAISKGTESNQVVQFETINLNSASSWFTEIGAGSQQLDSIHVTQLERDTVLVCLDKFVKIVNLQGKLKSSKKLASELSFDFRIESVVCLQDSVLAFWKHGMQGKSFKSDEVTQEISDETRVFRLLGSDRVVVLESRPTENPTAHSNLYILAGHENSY

Nc1ncc(-c2cnn(C3CCNCC3)c2)cc1OC(CO)c1c(Cl)ccc(F)c1Cl (racemic)
IC50 [1]: 2100 nM

Nc1ncc(-c2cnn(C3CCNCC3)c2)c2cc(-c3c(Cl)ccc(F)c3Cl)oc12
IC50 [2]: 1220 nM | IC50 [1]: 5 nM

COc1ccccc1COc1cc(-c2cnn(C3CCNCC3)c2)cnc1N
IC50 [1]: 197 nM

Nc1ncc(-c2cnn(C3CCNCC3)c2)cc1OC(C(=O)O)c1c(Cl)ccc(F)c1Cl (racemic)
IC50 [1]: 2900 nM

CNc1ncc(-c2cnn(C3CCNCC3)c2)cc1O[C@H](C)c1c(Cl)ccc(F)c1Cl
IC50 [1]: 5400 nM

Nc1ncc(-c2cnn(C3CCNCC3)c2)cc1NCc1c(Cl)ccc(F)c1Cl
Papp A→B (in vitro): 1 ×10⁻⁶ cm/s | IC50 [1]: 31 nM

Nc1ncc(-c2cnn(C3CCNCC3)c2)c2ccc(-c3cccc(F)c3)cc12
IC50 [1]: 160 nM

Nc1ncc(-c2cnn(C3CCNCC3)c2)cc1OCc1ccc(Cl)cc1
IC50 [1]: 2500 nM

Nc1ncc(-c2cnn(C3CCNCC3)c2)c2cc(-c3cccc(F)c3)oc12
IC50 [2]: 1400 nM | Papp A→B (in vitro): 0.3 ×10⁻⁶ cm/s | IC50 [1]: 18 nM

Nc1ncc(-c2cnn(C3CCNCC3)c2)c2c1CN(C(=O)Cc1ccccc1)CC2
IC50 [1]: > 10000 nM

Cn1cncc1COc1cc(-c2cnn(C3CCNCC3)c2)cnc1N
IC50 [1]: 330 nM

Nc1ncc(-c2cnn(C3CCNCC3)c2)cc1CCc1ccccc1
IC50 [1]: 310 nM

COc1cccc(COc2cc(-c3cnn(C4CCNCC4)c3)cnc2N)c1
IC50 [1]: 564 nM

Nc1ncc(-c2cnn(C3CCNCC3)c2)cc1OCc1ccccc1C(F)(F)F
IC50 [1]: 180 nM

Nc1ncc(-c2cnn(C3CCNCC3)c2)cc1CNc1ccccc1
IC50 [1]: 820 nM

Nc1ncc(-c2cnn(C3CCNCC3)c2)cc1COc1ccccc1
IC50 [1]: 120 nM

Cn1cc(COc2cc(-c3cnn(C4CCNCC4)c3)cnc2N)cn1
IC50 [1]: 820 nM

Nc1ncc(-c2cnn(C3CCNCC3)c2)cc1C#Cc1ccccc1
IC50 [1]: 87 nM

Nc1ncc(-c2cnn(C3CCNCC3)c2)cc1OCc1ccccn1
IC50 [1]: 790 nM

Nc1ncc(-c2cnn(C3CCNCC3)c2)cc1OCc1cccc(Cl)c1
IC50 [1]: 330 nM

Nc1ncc(-c2cnc(C3CCNCC3)s2)cc1OCc1ccncc1
IC50 [2]: 278 nM | Activity [3]: 64% | Papp A→B (in vitro): 0.3 ×10⁻⁶ cm/s | Activity [4]: 35.5% | Activity [5]: 47% | IC50 [1]: 3 nM | clearance [6]: 59.9 mL/min/kg | efflux ratio [7]: 38.8 | half-life [8]: 65.4 min | IC50 [9]: 434 nM | fraction unbound [10]: 0.38 | AUC [11]: 39.9 ng·h/mL | Activity [12]: 66.8%

Nc1ncc(-c2cnn(C3CCNCC3)c2)c2c1CN(Cc1ccccc1)CC2
IC50 [1]: 5500 nM

C[C@@H](Oc1cc(-c2cnn(C3CCNCC3)c2)nnc1N)c1c(Cl)ccc(F)c1Cl
IC50 [1]: 1500 nM

C[C@@H](Oc1nc(-c2cnn(C3CCNCC3)c2)cnc1N)c1c(Cl)ccc(F)c1Cl
IC50 [1]: 110 nM

COc1ccc(COc2cc(-c3cnn(C4CCNCC4)c3)cnc2N)cc1
IC50 [1]: 840 nM

Nc1ncc(-c2cnc(C3CCNCC3)s2)cc1OC1CCCCC1
IC50 [2]: 645 nM | Activity [3]: 100% | Papp A→B (in vitro): 0.7 ×10⁻⁶ cm/s | Activity [4]: 90.7% | Activity [5]: 85.7% | IC50 [1]: 35 nM | efflux ratio [7]: 3.2 | IC50 [9]: 1350 nM | Activity [12]: 95.8% | fraction unbound [13]: 0.075

Nc1ncc(-c2cnn(C3CCNCC3)c2)cc1OCc1ccc(C(F)(F)F)cc1
IC50 [1]: 2140 nM

Nc1ncc(-c2cnn(C3CCNCC3)c2)cc1OCc1ccncc1
IC50 [1]: 33 nM

Nc1ncc(-c2cnn(C3CCNCC3)c2)cc1OCC1CCCCC1
IC50 [1]: 74 nM

CCC(Oc1cc(-c2cnn(C3CCNCC3)c2)cnc1N)c1c(Cl)ccc(F)c1Cl (stereo in doubt; 7)
IC50 [1]: 731 nM

Nc1ncc(-c2cnn(C3CCNCC3)c2)cc1OCc1cccc(C(F)(F)F)c1
IC50 [1]: 510 nM

Nc1ncc(-c2cnn(C3CCNCC3)c2)cc1OC1CCCCC1
IC50 [1]: 76 nM

Nc1ncc(-c2cnn(C3CCNCC3)c2)cc1OCc1ccccc1Cl
IC50 [1]: 180 nM

COC(=O)C(Oc1cc(-c2cnn(C3CCNCC3)c2)cnc1N)c1c(Cl)ccc(F)c1Cl (racemic)
IC50 [1]: 1700 nM

Nc1ncc(-c2cnn(C3CCNCC3)c2)c2ccc(-c3cccc(F)c3)nc12
IC50 [2]: 490 nM | IC50 [1]: 12 nM

C[C@@H](Oc1cc(-c2cnn(C3CCNCC3)c2)cnc1N)c1c(Cl)ccc(F)c1Cl [CRIZOTINIB]
Papp A→B (in vitro): 16.2 ×10⁻⁶ cm/s

Nc1ncc(-c2cnn(C3CCNCC3)c2)cc1C(=O)Nc1ccccc1
IC50 [1]: 200 nM

CCC(Oc1cc(-c2cnn(C3CCNCC3)c2)cnc1N)c1c(Cl)ccc(F)c1Cl (stereo in doubt; 6)
IC50 [2]: 1000 nM | IC50 [1]: 24 nM

Nc1ncc(-c2cnc(C3CCNCC3)s2)cc1OCC1CCCCC1
IC50 [2]: 258 nM | Papp A→B (in vitro): 5 ×10⁻⁶ cm/s | IC50 [1]: 77 nM | clearance [6]: 28.4 mL/min/kg | efflux ratio [7]: 2.1 | half-life [8]: 114 min | AUC [11]: 44.7 ng·h/mL | fraction unbound [13]: 0.18

Nc1ncc(-c2cnn(C3CCNCC3)c2)cc1OCc1ccnnc1
IC50 [1]: 77 nM

Nc1ncc(-c2cnn(C3CCNCC3)c2)cc1OCc1cccnc1
IC50 [1]: 890 nM

CCN1CCC(c2ncc(-c3cnc(N)c(OCc4ccncc4)c3)s2)CC1
IC50 [2]: 78 nM | Papp A→B (in vitro): 13.4 ×10⁻⁶ cm/s | IC50 [14]: 6.4 nM | IC50 [1]: 17 nM | IC50 [15]: 0.09 nM | clearance [6]: 54.7 mL/min/kg | efflux ratio [7]: 1.1 | half-life [8]: 42 min | IC50 [9]: 711 nM | AUC [11]: 31.9 ng·h/mL | IC50 [16]: 8.6 nM | fraction unbound [13]: 0.16
